Test results: article PMC9226319, “Peripherally restricted transthyretin-based delivery system for probes and therapeutics avoiding opioid-related side effects” (Nature Communications, 2022)
Several values for one entry are separate records, joined by “and”; a condition that tells them apart may be missing. Equal values may be shown once. Entries after “also recorded” stand apart in the source; their conditions may differ. Read-outs that look alike come from different tables or passages of the source.

Tests used:
in vivo = settings: male, Sprague Dawley, rat, sc
TTR in human serum = TTR in human serum (Homo sapiens, UniProt P02766); experiment: TTR serum fluorescent probe exclusion (FPE) selectivity assay; assay type: binding; settings: ligand 10 µM; for %FPE probe fluorescence: human serum, replicates
[1] = Long-term stability assay of AG10-L2-Nal in PBS buffer; assay type: physicochemical; settings: 100 µM, 37 °C, analysed weekly for four weeks
male Sprague-Dawley rats = settings: rat, in vivo
[2] = Serum stability assay of AG10-L2-Nal, human serum; assay type: in vitro ADME; settings: 100 µM
Description: AG10-L2-Nal (100 μM) was incubated in sera, and the concentration remaining in respective media was determined at 0 and 48 h using HPLC. Bar graphs represent the mean of % compound remaining ± s.d. […] The plasma, brain tissue, and CSF were collected at 30 min after dosing. The ratio of the brain (ng/g) versus plasma concentration (ng/mL) is expressed as the percentage brain to plasma ratio. The ratio of the CSF (ng/mL) versus plasma concentration (ng/mL) is expressed as the percentage CSF to plasma ratio. Bar graphs show the respective mean (±s.d.) (n = 3 for each group). […] The concentration of the test compounds in plasma was determined at different time points and expressed as means ± s.d. of three biological replicates. Source data are provided as a Source Data file. […]
(Taiwan). The experimental procedure was performed as reported12. […]
Serum stability assay of AG10-L2-Nal. […] 100 μL samples were analyzed at 0 h, 24 h, and 48 h time intervals. […] The supernatant was analyzed using Waters™ XBridge C18 column (4.6x250 mm, 5μm) on Waters e2695 separations module HPLC system connected to a Waters 2998 photodiode array detector operating between the UV ranges of 200-400 nm. […]

[3] = target: T1, kappa opioid receptor (rat) (Rattus norvegicus, UniProt P34975); experiment: Rat kappa-opioid receptor (agonist radioligand [3H] U 69593) binding assay; settings: for % Inhibition of Control Specific Binding: kappa-opioid receptor binding, replicates 1st/2nd
T1 construct: Eurofins Cerep (France)
T1 sequence (P34975 whole entry): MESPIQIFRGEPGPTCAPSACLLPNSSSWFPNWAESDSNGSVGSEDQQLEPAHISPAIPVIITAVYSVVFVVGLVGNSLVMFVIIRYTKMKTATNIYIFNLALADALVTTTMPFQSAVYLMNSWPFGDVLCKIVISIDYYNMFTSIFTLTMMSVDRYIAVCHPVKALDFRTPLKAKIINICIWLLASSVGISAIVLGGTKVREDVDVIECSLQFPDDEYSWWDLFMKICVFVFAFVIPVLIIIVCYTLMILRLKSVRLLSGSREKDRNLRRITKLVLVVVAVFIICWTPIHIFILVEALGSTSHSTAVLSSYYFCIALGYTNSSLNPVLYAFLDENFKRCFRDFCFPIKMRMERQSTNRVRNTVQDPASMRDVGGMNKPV

**Q.** With `C=CCN1CC[C@]23c4c5ccc(O)c4O[C@H]2[C@@H](OCc2cn(CCNCCCCCCOc4cc(OCCCc6c(C)n[nH]c6C)cc(C(=O)O)c4)nn2)CC[C@@]3(O)[C@H]1C5` [AG10-L2-Nal] as the compound, how does the AUC(0-inf) (in vivo; 16 umol/kg) read?
**A.** 17.6 ± 2.54 µM·h

**Q.** What about the CL/F (in vivo; 16 umol/kg) of the same compound?
**A.** 15.3 mL/min/kg

**Q.** And the Vd/F (in vivo; 16 umol/kg)?
**A.** 4.89 ± 1.83 L/kg

**Q.** And the half-life (in vivo; 16 umol/kg)?
**A.** 3.62 ± 0.76 h

**Q.** What about the concentration at 0.25 h (in vivo; 16 µmol/kg, plasma concentration, SC 16 µmol/kg, 0.25 h, individual animals) of the same compound?
**A.** 7560 nM

**Q.** And the concentration at 0.5 h (in vivo; 16 µmol/kg, plasma concentration, SC 16 µmol/kg, 0.5 h, individual animals)?
**A.** 4680 nM

**Q.** What about the concentration at 0.75 h (in vivo; 16 µmol/kg, plasma concentration, SC 16 µmol/kg, 0.75 h, individual animals) of the same compound?
**A.** 4580 nM

**Q.** What about the concentration at 1 h (in vivo; 16 µmol/kg, plasma concentration, SC 16 µmol/kg, 1 h, individual animals) of the same compound?
**A.** 4240 nM

**Q.** And the concentration at 2 h (in vivo; 16 µmol/kg, plasma concentration, SC 16 µmol/kg, 2 h, individual animals)?
**A.** 2370 nM

**Q.** What about the concentration at 4 h (in vivo; 16 µmol/kg, plasma concentration, SC 16 µmol/kg, 4 h, individual animals) of the same compound?
**A.** 1470 nM

**Q.** What about the concentration at 6 h (in vivo; 16 µmol/kg, plasma concentration, SC 16 µmol/kg, 6 h, individual animals) of the same compound?
**A.** 1050 nM

**Q.** What about the concentration at 8 h (in vivo; 16 µmol/kg, plasma concentration, SC 16 µmol/kg, 8 h, individual animals) of the same compound?
**A.** 727 nM

**Q.** And the concentration at 24 h (in vivo; 16 µmol/kg, plasma concentration, SC 16 µmol/kg, 24 h, individual animals)?
**A.** 40.6 nM

**Q.** What about the “% TTR occupancy in human serum” value (TTR in human serum; FPE probe 3.6 µM, 3 h reading relative to probe alone, text mean ± s.d., table replicates) of the same compound?
**A.** 62.5 ± 1.1% and 62.04% and 62.07% and 64.05% and 61.92%

**Q.** And the “%FPE probe fluorescence” value (TTR in human serum; time 0.000 h)?
**A.** 0.000%

**Q.** What about the “%FPE probe fluorescence” value (TTR in human serum; time 0.083 h) of the same compound?
**A.** 0.018% and 0.756% and -2.232% and -2.399%

**Q.** What about the “%FPE probe fluorescence” value (TTR in human serum; time 0.250 h) of the same compound?
**A.** -1.158% and 2.209% and 1.458% and -0.885%

**Q.** What about the “%FPE probe fluorescence” value (TTR in human serum; time 0.500 h) of the same compound?
**A.** 4.241% and 3.528% and 5.089% and 2.218%

**Q.** What about the “%FPE probe fluorescence” value (TTR in human serum; time 1.000 h) of the same compound?
**A.** 6.503% and 10.611% and 13.590% and 14.148%

**Q.** And the “%FPE probe fluorescence” value (TTR in human serum; time 1.250 h)?
**A.** 9.009% and 13.005% and 15.989% and 16.127%

**Q.** And the “%FPE probe fluorescence” value (TTR in human serum; time 1.500 h)?
**A.** 13.314% and 18.863% and 18.262% and 17.288%

**Q.** What about the “%FPE probe fluorescence” value (TTR in human serum; time 1.750 h) of the same compound?
**A.** 17.598% and 21.285% and 22.377% and 21.648%

**Q.** And the “%FPE probe fluorescence” value (TTR in human serum; time 2.000 h)?
**A.** 21.919% and 25.680% and 23.861% and 25.075%

**Q.** What about the “%FPE probe fluorescence” value (TTR in human serum; time 2.250 h) of the same compound?
**A.** 26.163% and 28.876% and 26.928% and 27.418%

**Q.** What about the “%FPE probe fluorescence” value (TTR in human serum; time 2.500 h) of the same compound?
**A.** 26.877% and 32.466% and 29.919% and 30.633%

**Q.** And the “%FPE probe fluorescence” value (TTR in human serum; time 2.750 h)?
**A.** 34.129% and 34.947% and 31.920% and 33.937%

**Q.** What about the “%FPE probe fluorescence” value (TTR in human serum; time 3.000 h) of the same compound?
**A.** 37.964% and 37.926% and 35.954% and 38.083%

**Q.** What about the “%FPE probe fluorescence” value (TTR in human serum; time 3.500 h) of the same compound?
**A.** 44.335% and 44.718% and 41.995% and 45.800%

**Q.** And the “%FPE probe fluorescence” value (TTR in human serum; time 3.750 h)?
**A.** 47.041% and 46.124% and 44.395% and 46.344%

**Q.** What about the “%FPE probe fluorescence” value (TTR in human serum; time 4.000 h) of the same compound?
**A.** 49.775% and 49.574% and 47.863% and 50.648%

**Q.** And the “%FPE probe fluorescence” value (TTR in human serum; time 4.250 h)?
**A.** 49.252% and 50.428% and 49.751% and 51.967%

**Q.** What about the “%FPE probe fluorescence” value (TTR in human serum; time 4.500 h) of the same compound?
**A.** 53.631% and 53.865% and 52.939% and 52.730%

**Q.** What about the “%FPE probe fluorescence” value (TTR in human serum; time 4.750 h) of the same compound?
**A.** 56.220% and 54.908% and 55.174% and 55.874%

**Q.** What about the “%FPE probe fluorescence” value (TTR in human serum; time 5.000 h) of the same compound?
**A.** 57.139% and 56.055% and 53.820% and 57.315%

**Q.** What about the “%FPE probe fluorescence” value (TTR in human serum; time 5.250 h) of the same compound?
**A.** 59.200% and 60.014% and 56.004% and 59.143%

**Q.** And the “%FPE probe fluorescence” value (TTR in human serum; time 5.500 h)?
**A.** 60.336% and 59.246% and 59.233% and 60.795%

**Q.** And the “%FPE probe fluorescence” value (TTR in human serum; time 5.750 h)?
**A.** 61.971% and 60.994% and 58.022% and 62.173%

**Q.** And the “%FPE probe fluorescence” value (TTR in human serum; time 6.000 h)?
**A.** 64.344% and 63.419% and 61.650% and 63.934%

**Q.** And the “chemical stability in PBS buffer” value [1]?
**A.** stable in buffer for a least one month; also recorded: chemically stable in phosphate buffer saline for at least one month at 37 °C

**Q.** What about the plasma concentration (male Sprague-Dawley rats; male, Sprague-Dawley) of the same compound?
**A.** 7600 ± 500 nM

**Q.** What about the Hot plate latency (male Sprague-Dawley rats) of the same compound?
**A.** 60 s

**Q.** What about the hot plate latency (male Sprague-Dawley rats) of the same compound?
**A.** significant analgesia

**Q.** What about the “reversal of morphine-induced analgesia in the presence of AG10” value (male Sprague-Dawley rats) of the same compound?
**A.** no reversal of analgesia

**Q.** What about the hot plate latency (male Sprague-Dawley rats; iv) of the same compound?
**A.** 60 s

**Q.** What about the “% compound remaining in human serum” value ([2]; 0 h, replicates) of the same compound?
**A.** 101.76% and 98.77% and 99.47%

**Q.** What about the “% compound remaining in human serum” value ([2]; 37 °C, 48 h, table replicates) of the same compound?
**A.** 100% and 100.03% and 100.96% and 96.87%

**Q.** And the Ki ([3]; [3H] U 69593 displacement, read-out: binding affinity to kappa-opioid receptor (Ki))?
**A.** 0.12 nM

**Q.** And the “% Inhibition of Control Specific Binding” value ([3]; 1.0E-07 M)?
**A.** 98.2% and 98.6%

**Q.** And the “% Inhibition of Control Specific Binding” value ([3]; 1.0E-08 M)?
**A.** 96.0%

**Q.** And the “% Inhibition of Control Specific Binding” value ([3]; 1.0E-09 M)?
**A.** 83.2% and 82.8%

**Q.** What about the “% Inhibition of Control Specific Binding” value ([3]; 1.0E-10 M) of the same compound?
**A.** 41.5% and 28.1%

**Q.** What about the “% Inhibition of Control Specific Binding” value ([3]; 5.0E-08 M) of the same compound?
**A.** 98.3% and 97.6%
